Measured values as given in the supplement of paper PMC13380429.

Key:
Details in all cases: 72 h
Calu-3 [1] = experiment: relative viability EC50 (midpoint between 100% and the lowest measured viability); higher = less toxic
U2OS [2] = experiment: as above
HepG2 [3] = experiment: as above
Vero E6 [4] = experiment: as above
Caco-2 [5] = experiment: drug sensitivity score (DSS) for viability; higher = more toxic; extreme values may be limits of the assay
Calu-3 [6] = experiment: as above
U2OS [7] = experiment: as above
HepG2 [8] = experiment: as above
Vero E6 [9] = experiment: as above
Caco-2 [10] = experiment: cell viability relative to DMSO; higher = less toxic
Calu-3 [11] = experiment: as above
U2OS [12] = experiment: as above
HepG2 [13] = experiment: as above
Vero E6 [14] = experiment: as above
Caco-2 [15] = experiment: relative viability EC50 (midpoint between 100% and the lowest measured viability); higher = less toxic

Compound	relative viability EC50 (Calu-3 [1]) [µM]	relative viability EC50 (U2OS [2]) [µM]	relative viability EC50 (HepG2 [3]) [µM]	relative viability EC50 (Vero E6 [4]) [µM]	drug sensitivity score (Caco-2 [5])	drug sensitivity score (Calu-3 [6])	drug sensitivity score (U2OS [7])	drug sensitivity score (HepG2 [8])	drug sensitivity score (Vero E6 [9])	cell viability (Caco-2 [10]; 1 nM) [%]	cell viability (Caco-2 [10]; 10 nM) [%]	cell viability (Caco-2 [10]; 100 nM) [%]	cell viability (Caco-2 [10]; 1000 nM) [%]	cell viability (Caco-2 [10]; 10000 nM) [%]	cell viability (Calu-3 [11]; 1 nM) [%]	cell viability (Calu-3 [11]; 10 nM) [%]	cell viability (Calu-3 [11]; 100 nM) [%]	cell viability (Calu-3 [11]; 1000 nM) [%]	cell viability (Calu-3 [11]; 10000 nM) [%]	cell viability (U2OS [12]; 1 nM) [%]	cell viability (U2OS [12]; 10 nM) [%]	cell viability (U2OS [12]; 100 nM) [%]	cell viability (U2OS [12]; 1000 nM) [%]	cell viability (U2OS [12]; 10000 nM) [%]	cell viability (HepG2 [13]; 1 nM) [%]	cell viability (HepG2 [13]; 10 nM) [%]	cell viability (HepG2 [13]; 100 nM) [%]	cell viability (HepG2 [13]; 1000 nM) [%]	cell viability (HepG2 [13]; 10000 nM) [%]	cell viability (Vero E6 [14]; 1 nM) [%]	cell viability (Vero E6 [14]; 10 nM) [%]	cell viability (Vero E6 [14]; 100 nM) [%]	cell viability (Vero E6 [14]; 1000 nM) [%]	cell viability (Vero E6 [14]; 10000 nM) [%]	relative viability EC50 (Caco-2 [15]) [µM]
O=C1c2ccc(Nc3ccc(F)cc3F)cc2CCc2ccc(OC[C@H](O)CO)cc21 [skepinone-L]	> 10	> 10	> 10	> 10	2.5	0	0.1	0.8	1.9	103	84.1	89.2	91.7	73.4	97.2	94	96.2	101	94.7	96.5	91.8	91.4	90.2	89.5	102	109	98.8	101	75.2	103	103	86.8	89.4	80.3	
CN(C)C1CCN(C(=O)c2ccc(NC(=O)Nc3ccc(-c4nc(N5CCOCC5)nc(N5CCOCC5)n4)cc3)cc2)CC1	0.635	> 10	> 10	> 10	3.3	8.3	1.5	0.3	0	93.8	93.7	102	87.1	66.7	105	90.5	87.2	65.6	35.5	97.7	97.8	100	92.1	79.7	98.5	108	95.8	100	84.3	94.2	100	89.3	90.7	107	
Cn1c(=O)cnn(CCCCN2CCN(c3ncccn3)CC2)c1=O	> 10	> 10	> 10			0	0	0							111	91.3	102	120	103	103	97.1	103	97.8	103	111	114	95.2	116	106						
CC(C)(C)Sc1c(CC(C)(C)C(=O)O)n(Cc2ccc(Cl)cc2)c2ccc(OCc3ccc4ccccc4n3)cc12 [quiflapon]	> 10	> 10	> 10		0	0	0	0		104	102	97	96	102	91.5	97.3	98.7	102	110	102	108	104	99.6	109	105	95.6	96.8	98.3	104						> 10
C[S+](CC[C@H](N)C(=O)O)C[C@H]1O[C@@H](n2cnc3c(N)ncnc32)[C@H](O)[C@@H]1O (stereo partly specified) [ademetionine]	> 10	> 10	> 10	> 10		0	0	0	0						106	106	105	99.8	96.3	100	97.9	98.5	98	106	94.7	105	89.9	91.4	91.3	99.8	104	103	108	92.2	
CCc1ccc(/C=C2/SC(=S)NC2=O)cc1	> 10	> 10	> 10		0	0	0	0		102	85.3	101	108	93.3	101	87	97.9	93.4	103	97.9	95.9	99.8	94.9	96.7	98.2	106	93.7	95.9	95.6						> 10
CCCn1c(=O)c2nc(C34CC5CC(CC3C5)C4)[nH]c2n(CCC)c1=O [KW-3902]	> 10	> 10	> 10		0.9	0	0	0		95.9	94.4	101	95.1	82.5	83.8	89.3	92.6	96.6	100	98.8	96.5	100	99.5	102	94.2	92.9	98.2	101	91.6						> 10
CCC1(c2c[nH]cn2)Cc2ccccc2C1 [atipamezole]	> 10		> 10		0	0		0		104	115	104	100	108	96.9	101	94.9	106	93.5						102	95.5	111	100	109						> 10
Cc1nnc(NS(=O)(=O)c2ccc(N)cc2)s1 [sulfamethizole]	> 10	> 10	> 10		0	0	0	0		88.1	85.7	98.9	93.6	99	96.3	98.4	96.7	99.2	105	103	98.1	103	99.2	99.2	102	111	98	108	90.4						> 10
CC(C)(CO)CCCCCCC(C)(C)CO [gemcadiol]	> 10	> 10		> 10	0	0	0		0	89.7	129	113	128	92.2	97.4	93.5	100	94.3	105	97	94.5	103	96.8	98.7						93.8	102	102	103	108	> 10
O=C(/C=C/c1ccccc1)NC(NC(=S)Nc1cccc2cccnc12)C(Cl)(Cl)Cl (stereo unspecified) [salubrinal]	> 10	> 10	> 10		0.4	0	0	0		126	102	96.7	103	80.1	99.4	100	97.6	109	87.1	98.3	107	101	102	91.1	107	111	99.1	101	108						> 10
CC(C)(O)C(=O)N1CCN(c2ccc(C(F)(F)F)c(C3=C(c4c[nH]c5ccccc45)C(=O)NC3=O)c2)CC1	4.17	3.35	3.57	3.46	2.2	2.1	3.3	4.6	3.6	92.7	95.5	95.7	105	51.1	102	93.2	106	117	46.2	99.6	95.8	103	102	35.6	101	96.5	103	107	7.5	102	97.7	96.9	104	29.5	
Cc1cn([C@H]2C[C@H](N=[N+]=[N-])[C@@H](CO)O2)c(=O)[nH]c1=O [zidovudine]	> 10	> 10	> 10		0	0	0	0		94.9	92.6	105	98	98	107	89.6	101	98.9	103	103	104	95.2	103	94.3	101	109	99	94.6	104						> 10
O/N=C/c1cc[n+](COC[n+]2ccc(/C=N/O)cc2)cc1 [obidoxime]	> 10	> 10			0	0	0			94.5	99.4	94.4	94.7	94.6	102	91.8	100	84.1	106	97.2	101	94.9	95.2	102											> 10
CC(=O)O[C@]1(C(C)=O)CC[C@H]2[C@@H]3CCC4=CC(=O)CCC4=C3[C@@H](c3ccc(N(C)C)cc3)C[C@@]21C [Ulipristal acetate]	> 10	> 10	> 10	> 10	1.8	0	0	0	0	94.7	94.7	98.3	97.9	67.8	105	106	97.1	104	110	103	103	99.1	99.6	94.9	110	110	103	97.9	104	104	98.2	99.3	97	98.3	
COc1ccc(S(=O)(=O)N2CCCN(S(=O)(=O)c3ccc(OC)c(OC)c3)CC2)cc1OC	> 10	> 10	> 10		0	0	0	0		89.4	90.5	94.5	102	108	89.1	84.7	102	94.4	92.1	98.6	96.1	99.3	100	97	99.3	100	79.4	98.7	110						> 10
